Drawing on PubChem BioAssay AID330 (DTP/NCI, 2004), this text covers T/C for eleven compounds.

The assay has as its system P388 leukemia ip, CD2F1 mice, survival T/C. The assay is described as follows: NCI In Vivo Anticancer Drug Screen. Data for tumor model P388 Leukemia (intraperitoneal) in CD2F1 (CDF1) mice. The note with it: endpoint: median survival time, higher = longer survival. The essentials: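 Mice carrying the transplanted tumor received test compound or vehicle. Survival was recorded in each group, and the value is the treated-group measurement divided by that of the vehicle-treated control group.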

[1] abbreviates: dose: 25.0 mg/kg/injection, schedule: Q01DX005 (ip), vehicle: Klucel (hydroxypropylcellulose) (HPC).
The mark [2] stands for this setting: dose: 50.0 mg/kg/injection, schedule: Q01DX005 (ip), vehicle: Klucel (hydroxypropylcellulose) (HPC).
Where [3] appears, read: dose: 100.0 mg/kg/injection, schedule: Q01DX005 (ip), vehicle: Klucel (hydroxypropylcellulose) (HPC).
[4] abbreviates: dose: 200.0 mg/kg/injection, schedule: Q01DX005 (ip), vehicle: Klucel (hydroxypropylcellulose) (HPC).
[5] abbreviates: dose: 100.0 mg/kg/injection, schedule: Q04DX003 (ip), vehicle: saline with Tween-80.
Setting [6] is: dose: 200.0 mg/kg/injection, schedule: Q04DX003 (ip), vehicle: saline with Tween-80.
[7] abbreviates: dose: 400.0 mg/kg/injection, schedule: Q04DX003 (ip), vehicle: saline with Tween-80.

Structures are written as SMILES. Several values for one entry are separate records, joined by “and”; a condition that tells them apart may be missing. Equal values may be shown once. Inconclusive results and toxic doses are left out.

Consider `Nc1nc(Cl)nc(Nc2ccc(-c3cc4ccc(-c5ncc[nH]5)cc4[nH]3)cc2)n1`, for which the T/C is, setting by setting: (dose: 60.0 mg/kg/injection, schedule: Q01DX005 (ip), vehicle: Klucel (hydroxypropylcellulose) (HPC)) 88 % of control; (dose: 120.0 mg/kg/injection, schedule: Q01DX005 (ip), vehicle: Klucel (hydroxypropylcellulose) (HPC)) 88 % of control; (dose: 240.0 mg/kg/injection, schedule: Q01DX005 (ip), vehicle: Klucel (hydroxypropylcellulose) (HPC)) 87 % of control.
On to `CC(C)=CCSc1ccccc1`, for which the T/C (dose: 100.0 mg/kg/injection, schedule: Q04DX002 (ip), vehicle: Klucel (hydroxypropylcellulose) (HPC)) was 104 % of control; the T/C (dose: 200.0 mg/kg/injection, schedule: Q04DX002 (ip), vehicle: Klucel (hydroxypropylcellulose) (HPC)) was 106 % of control; the T/C (dose: 400.0 mg/kg/injection, schedule: Q04DX002 (ip), vehicle: Klucel (hydroxypropylcellulose) (HPC)) was 109 % of control.
On to `CC1CN1P(=O)(OCCC#N)N1CC1C` (configuration not stated), for which the T/C runs as follows: (dose: 25.0 mg/kg/injection, schedule: Q01DX009 (ip), vehicle: other) 104 % of control; (dose: 44.0 mg/kg/injection, schedule: Q04DX003 (ip), vehicle: other) 118 % of control; (dose: 50.0 mg/kg/injection, schedule: Q01DX009 (ip), vehicle: other) 110 % of control; (dose: 66.0 mg/kg/injection, schedule: Q04DX003 (ip), vehicle: other) 118 % of control; (dose: 100.0 mg/kg/injection, schedule: Q01DX009 (ip), vehicle: other) 165 % of control and 177 % of control; (dose: 150.0 mg/kg/injection, schedule: Q04DX003 (ip), vehicle: other) 163 % of control.
Take `CCOC(=O)C(Cc1cc2c(n1C)CCCC2)(NC(C)=O)C(=O)OCC`: the T/C reads like this: under setting [1], 98 % of control; under setting [2], 96 % of control; under setting [3], 98 % of control; under setting [4], 100 % of control.
Turning to `O=c1[nH]c(=O)n(C2CC(O)C(CO)O2)cc1O` (configuration not stated), the T/C by setting is: (dose: 50.0 mg/kg/injection, schedule: Q04DX003 (ip), vehicle: saline with Tween-80) 100 % of control; under setting [5], 101 % of control; under setting [6], 99 % of control; under setting [7], 101 % of control.
On to `CS(=O)(=O)OCC(O)C(O)COS(C)(=O)=O` (configuration not stated), for which the T/C was 106 % of control (dose: 50.0 mg/kg/injection, schedule: Q01DX001 (ip), vehicle: Klucel (hydroxypropylcellulose) (HPC)); 110 % of control (dose: 100.0 mg/kg/injection, schedule: Q01DX001 (ip), vehicle: Klucel (hydroxypropylcellulose) (HPC)); 100 % of control (dose: 100.0 mg/kg/injection, schedule: Q01DX001 (ip), vehicle: saline); 100 % of control (dose: 100.0 mg/kg/injection, schedule: Q01DX001 (oral), vehicle: saline); 104 % of control (dose: 100.0 mg/kg/injection, schedule: Q01DX009 (oral), vehicle: saline); 100 % of control (dose: 100.0 mg/kg/injection, schedule: Q03HX008 (ip), vehicle: saline). The T/C runs as follows: (dose: 100.0 mg/kg/injection, schedule: Q03HX016 (ip), vehicle: saline) 100 % of control; (dose: 100.0 mg/kg/injection, schedule: Q03HX024 (ip), vehicle: saline) 100 % of control; under setting [5], 109 % of control; (dose: 100.0 mg/kg/injection, schedule: Q04DX003 (ip), vehicle: saline) 104 % of control; (dose: 100.0 mg/kg/injection, schedule: Q08DX002 (ip), vehicle: saline) 104 % of control; (dose: 200.0 mg/kg/injection, schedule: Q01DX001 (ip), vehicle: Klucel (hydroxypropylcellulose) (HPC)) 110 % of control. Further, the T/C runs as follows: (dose: 200.0 mg/kg/injection, schedule: Q01DX001 (ip), vehicle: saline) 100 % of control; (dose: 200.0 mg/kg/injection, schedule: Q01DX001 (oral), vehicle: saline) 100 % of control; (dose: 200.0 mg/kg/injection, schedule: Q01DX009 (oral), vehicle: saline) 104 % of control; (dose: 200.0 mg/kg/injection, schedule: Q03HX008 (ip), vehicle: saline) 100 % of control; (dose: 200.0 mg/kg/injection, schedule: Q03HX016 (ip), vehicle: saline) 100 % of control; (dose: 200.0 mg/kg/injection, schedule: Q03HX024 (ip), vehicle: saline) 100 % of control. For the same compound, the T/C under setting [6] was 104 % of control; the T/C (dose: 200.0 mg/kg/injection, schedule: Q04DX003 (ip), vehicle: saline) was 100 % of control; the T/C (dose: 200.0 mg/kg/injection, schedule: Q08DX002 (ip), vehicle: saline) was 104 % of control; the T/C (dose: 400.0 mg/kg/injection, schedule: Q01DX001 (ip), vehicle: saline) is 100 % of control; the T/C (dose: 400.0 mg/kg/injection, schedule: Q01DX001 (oral), vehicle: saline) was 109 % of control; the T/C (dose: 400.0 mg/kg/injection, schedule: Q01DX009 (ip), vehicle: saline) was 90 % of control. For the same compound, the T/C by setting is: (dose: 400.0 mg/kg/injection, schedule: Q01DX009 (oral), vehicle: saline) 100 % of control; (dose: 400.0 mg/kg/injection, schedule: Q03HX008 (ip), vehicle: saline) 109 % of control; (dose: 400.0 mg/kg/injection, schedule: Q03HX016 (ip), vehicle: saline) 100 % of control; (dose: 400.0 mg/kg/injection, schedule: Q03HX024 (ip), vehicle: saline) 100 % of control; under setting [7], 118 % of control; (dose: 400.0 mg/kg/injection, schedule: Q04DX003 (ip), vehicle: saline) 104 % of control. In addition, the T/C reads like this: (dose: 400.0 mg/kg/injection, schedule: Q08DX002 (ip), vehicle: saline) 104 % of control; (dose: 800.0 mg/kg/injection, schedule: Q01DX001 (ip), vehicle: saline) 109 % of control; (dose: 800.0 mg/kg/injection, schedule: Q01DX001 (oral), vehicle: saline) 100 % of control; (dose: 800.0 mg/kg/injection, schedule: Q01DX009 (oral), vehicle: saline) 113 % of control; (dose: 800.0 mg/kg/injection, schedule: Q03HX008 (ip), vehicle: saline) 109 % of control; (dose: 800.0 mg/kg/injection, schedule: Q03HX016 (ip), vehicle: saline) 100 % of control. Moreover, the T/C is 100 % of control (dose: 800.0 mg/kg/injection, schedule: Q03HX024 (ip), vehicle: saline); 114 % of control (dose: 800.0 mg/kg/injection, schedule: Q04DX003 (ip), vehicle: saline); 104 % of control (dose: 800.0 mg/kg/injection, schedule: Q08DX002 (ip), vehicle: saline).
Regarding `COC(=O)CCSC(=O)Nc1ccc(Cl)cc1`, the T/C is 105 % of control under setting [2], 101 % of control under setting [3] and 113 % of control under setting [4].
Consider `COc1cccc(Oc2ccc(C)c[n+]2CC(C)=O)c1`, for which the T/C is 100 % of control (dose: 25.0 mg/kg/injection, schedule: Q01DX005 (ip), vehicle: saline with Tween-80) and 105 % of control (dose: 50.0 mg/kg/injection, schedule: Q01DX005 (ip), vehicle: saline with Tween-80).
For the compound `O=C(O)/C=C/c1c2ccc(=O)c(O)c-2oc2c(O)c(O)ccc12`, the T/C runs as follows: (dose: 60.0 mg/kg/injection, schedule: Q01DX005 (ip), vehicle: saline with Tween-80) 93 % of control; (dose: 120.0 mg/kg/injection, schedule: Q01DX005 (ip), vehicle: saline with Tween-80) 93 % of control; (dose: 240.0 mg/kg/injection, schedule: Q01DX005 (ip), vehicle: saline with Tween-80) 92 % of control.
On to `O=C(NC(c1ccccc1)c1cccs1)c1cccs1` (configuration not stated), for which the T/C under setting [2] is 99 % of control, the T/C under setting [3] is 99 % of control and the T/C under setting [4] was 103 % of control.
`COc1ccc2cc1Oc1ccc(cc1)CC1c3cc(OC)c(cc3CCN1C)Oc1c(OC)c(OC)cc3c1C(C2)N(C)CC3` (configuration not stated): the T/C runs as follows: (dose: 12.5 mg/kg/injection, schedule: Q01DX005 (ip), vehicle: Klucel (hydroxypropylcellulose) (HPC)) 92 % of control; under setting [1], 95 % of control; under setting [2], 94 % of control; (dose: 100.0 mg/kg/injection, schedule: Q01DX001 (ip), vehicle: saline with Tween-80) 98 % of control; under setting [3], 86 % of control; (dose: 200.0 mg/kg/injection, schedule: Q01DX001 (ip), vehicle: saline with Tween-80) 86 % of control. The T/C (dose: 400.0 mg/kg/injection, schedule: Q01DX001 (ip), vehicle: saline with Tween-80) is 86 % of control.
